Experimental data: paper PMC3284447, “In vivo antinociception of potent mu opioid agonist tetrapeptide analogues and comparison with a compact opioid agonist - neurokinin 1 receptor antagonist chimera” (Molecular Brain, 2012)
“Also recorded” adds a separate entry of the source.

Tests used:
DOR [1] = experiment: MVD (mouse vas deferens) tissue bioassay, DOR-representative; conditions: SBCHM01 compared to AN81, MVD EC50
Description: Aba: 4-amino-1,2,4,5-tetrahydro-2-benzazepin-3-on; BBB: blood-brain barrier; CNS: central nervous system; DML: designed multiple ligand; Dmt: 2',6'-dimethyl-(S)-tyrosine; DOR: δ-opioid receptor; GPI: Guinea pig ileum; KOR: κ-opioid receptor; MOR: μ-opioid receptor; MPE: maximal possible effect; MVD: mouse vas deferens; NK1: neurokinin 1.

MOR [2] = test system: MOR; set-up: method as in PMID 21413804; conditions: GPI tissue bioassay; means of 3-6 experiments ± SEM; cited from earlier work
DOR [3] = test system: DOR; set-up: method as in PMID 21413804; conditions: MVD tissue bioassay; means of 3-6 experiments ± SEM; cited from earlier work
NK1R = conditions: calculated using the Schild's equation; cited from earlier work
Description: Table 1 In vitro functional activities and affinities of opioid- and opioid-NK1 ligands | column: NK1R pA2^a

male C57Bl6 mice [4] = experiment: hot water tail-flick test, acute antinociception after i.v. administration; assay type: in vivo, mouse; conditions: i.v.; for %MPE: 120 min, ± SEM
Experimental: (§1) Nociceptive responses to thermally-induced pain were assessed by the hot water tail-flick test using male C57Bl6 mice. Animals (weighing 25-28 g) were maintained on a normal light-dark cycle and testing occurred during the light cycle. Mice were injected intravenously (i.v.) with the examined drug, dissolved in saline, at different doses. For the verification of drug-induced antinociceptive tolerance, the investigated compounds were administered (i.v.) once per day for 5 days (2 and 4 mg/kg for SBCHM01 and 4 mg/kg for both AN81 and BVD03) and the analgesic effect was measured on the first and the fifth day of the experiment. In each case (both acute and chronic treatment) the effect was measured over a minimum time period of 120 minutes. The antinociceptive effect was measured in triplicate at the following time points post-injection: 5, 15, 30, 60, 120 min (and 180 min for SBCHM01; due to the strong and long-lasting analgesic effect produced by AN81 (Figure 2C), there was no possibility to prolong the experiment, which - if prolonged - could in consequence cause major damage to the animal's tail, thus giving spurious nociceptive responses). Responses to thermal hot stimulus were assessed by the latency with which the mouse removed its tail from 55°C water. A cut-off time of 10 s was used in order to prevent tissue damage.
(§2) In order to compare the antinociceptive effect induced by the examined drugs, morphine was used as a standard reference.
(§3) Data are presented as means ± standard errors of the mean (SEM). All of the calculations and statistical analysis were performed using Prism 5.0 (Graph Pad Software, San Diego, CA, USA). The nociceptive scores were analyzed using a two-way Anova with Bonferroni's post hoc test. The p value (the value of probability) as well as inferential statistics - F test, which include information about the obtained magnitude or value of the test statistic and degrees of freedom, are represented.

KOR = conditions: [^3H]U69,593, guinea pig brain membrane; cited from earlier work
Description: Table 1 In vitro functional activities and affinities of opioid- and opioid-NK1 ligands | column: KOR Ki (nM)^e, f

male C57Bl6 mice [5] = experiment: hot water tail-flick test, tolerance after daily i.v. administration for 5 days; assay type: in vivo, mouse
Experimental: as §1, §2, §3

MOR [6] = target: MOR; set-up: method as in PMID 21413804; conditions: [^3H]DAMGO, rat brain membrane; cited from earlier work
DOR [7] = experiment: DOR binding, displacement of [^3H]DSLET from rat brain membranes; conditions: SBCHM01 compared to AN81, Ki
hNK1R = conditions: [^3H]-SP, hNK1-CHO membranes; means ± SEM of three independent experiments; one site competition fitting; cited from earlier work
Description: Table 1 In vitro functional activities and affinities of opioid- and opioid-NK1 ligands | column: hNK1R Ki (nM)^b

DOR [8] = target: DOR; set-up: method as in PMID 21413804; conditions: [^3H]DSLET, rat brain membrane; cited from earlier work
MOR [9] = test system: MOR; set-up: method as in PMID 8981054, PMID 7712029; conditions: cited from earlier work
rodents = conditions: administered centrally or peripherally in rodents; cited from earlier work
Description: From our previous results, we selected three opioid tetrapeptides with promising in vitro potency for further in vivo evaluation. […] We recently identified the opioid ligands H-Dmt-NMe-D ...

Substance	fold decrease in DOR potency vs AN81 (DOR [1]) [fold]	EC50 (MOR [2]) [nM]	EC50 (DOR [3]) [nM]	NK1R pA2 (NK1R)	%MPE (male C57Bl6 mice [4]; 2 mg/kg, first day of treatment) [%]	%MPE (male C57Bl6 mice [4]; 4 mg/kg, vs morphine: BVD03 p < 0.05, SBCHM01 p > 0.05) [%]	antinociceptive activity relative to morphine (male C57Bl6 mice [4]; 4 mg/kg, whole period of measurements, morphine i.p. same dose)	synergistic or potentiating effect of combined pharmacophores (male C57Bl6 mice [4]; opioid and NK1 pharmacophores in a single entity)	Ki (KOR) [nM]	tolerance development after repetitive administration (male C57Bl6 mice [5]; daily for 5 days, i.v. (morphine i.p.), measured on day 5)	%MPE (male C57Bl6 mice [5]; day 1, i.v., 2 mg/kg, 3 h, ± SEM) [%]	potency at 180 min (male C57Bl6 mice [5]; day 1, SBCHM01 2 mg/kg i.v., morphine 4 mg/kg i.p.)	antinociceptive activity on the fifth day (male C57Bl6 mice [5]; day 5, i.v., 2 mg/kg daily, up to 3 h)	%MPE (male C57Bl6 mice [5]; day 5, i.v., 4 mg/kg daily, 30 min, ± SEM (AN81 7-10 animals, p < 0.001; SBCHM01 8-10 mice)) [%]	Ki (MOR [6]) [nM]	fold decrease in DOR binding vs AN81 (DOR [7]) [fold]	Ki (hNK1R) [nM]	Ki (DOR [8]) [nM]	affinity and selectivity for the MOR (MOR [9])	tolerance development compared to morphine (rodents)
H-Dmt-D-Arg-Aba-Gly-NMe-3',5'-Bn(CF3)2 [SBCHM01]	103	8.51 ± 0.62	43.3 ± 6.3	7.8	85.12 ± 5.43	80.47 ± 5.29	slightly weaker during the whole period of measurements	neither an synergistic nor potentiating antinociceptive effect appears	445 ± 81	could not circumvent opioid induced tolerance; also recorded: mice had developed opioid-induced tolerance; also recorded: lower dose of SBCHM01 does not reduce the extent of tolerance development; also recorded: complete loss in antinociception on the fifth day of the experiment; also recorded: lost its antinociceptive potency completely upon chronic injection	71.13 ± 4.71	decrease in potency is clearly visible	Complete abolishment of SBCHM01's antinociceptive activity on the fifth day	12.25 ± 7.33	0.416 ± 0.012	17	0.5 ± 0.1	10.4 ± 0.6		
H-Tyr-D-Ala-Phe-Gly-Tyr-Pro-Ser-NH2 [dermorphin]																			high affinity and selectivity for the MOR	induces less tolerance development when compared to morphine
